Values after ≈ are worked out from the molar mass of the structure shown.
Experiment: physchem
Settings: water

Question: For `CCCN(CCC)CCc1cccc2c1CC(=O)N2` [ropinirole, Ropinirole], which solubility is on record?
Answer: 133 mg/mL (≈ 511 mM)

From patent publication US7927624B2, “Hydrophilic/lipophilic polymeric matrix dosage formulation” (Jagotec AG, priority 2000, dated 2011)
